Test results taken from US10519177B2, “Heterocyclic compounds and uses thereof” (Plexxikon Inc., priority 2013, dated 2019).
Like-named read-outs stand apart in the source and are kept apart here.

Legend:
MV-4-11 cells = assay: Oncology cell growth assay MV-4-11 (CellTiter Glo); assay type: cell-based; conditions: Homo sapiens, MV4-11, 72 h, read-out: Cell activity (IC50 μM) MV-4-11 3d-Growth
Outline: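 Growth read by CellTiter Glo luminescence after 72 h compound treatment of MLL-AF4-bearing MV-4-11 cells (3000/well). Titration: 8 points, 1:3 steps, maximum 10 μM, 0.2% DMSO final. Data normalized to DMSO wells, four-parameter fit gives pIC50.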

BRD4-BD12 (1-477) = BRD4-BD12 (1-477) (Homo sapiens (Human), UniProt O60885); assay: Alphascreen binding assay BRD4-BD12; conditions: BRD4(1 2) H4; read-out: Biochemical activity (IC50 μM) BRD4(1 2) H4
Experimental: Binding of compounds of formula (I) with bromodomain 2, 3 4 was assessed using Alphascreen binding assay. The inhibition of the interaction between bromodomain and its acetylated target protein (Filippakopoulos P et al. 2012) was measured quantitatively using recombinant BRD proteins, an acetylated Histone 4 peptide and AlphaScreen™ technology. In absence of inhibition the BRD protein bound to AlphaScreen™ nickel chelate acceptor beads can interact with the acetylated Histone 4 peptide which is immobilized by the AlphaScreen™ Streptavidin coated beads. This interaction brings donor and acceptor beads in proximity. The close proximity allows the singlet oxygen produced by laser excitation of the donor beads to reach the acceptor beads and generate a luminescence signal.
Recombinant human bromodomains containing the N-terminal bromodomain (BRD2-BD1 (71-194), BRD3-BD1 (24-144) and BRD4-BD1 (44-164)) or dual bromodomains (BRD4-BD12 (1-477), BRD4-BD12 (1-472)) were prepared and purified as described in protein expression and purification session. The peptide is human Histone H41-21K5AcK8AcK12AcK16Ac-Biotin (Anaspec CA, USA).
Protocol for BRD2, BRD3 and BRD4 assay: All components are prepared in buffer composed of 50 mM HEPES pH 7.5, 100 mM NaCl, 0.01% bovine serum albumin (“BSA”), 0.01% Triton X-100, 2 mM dithiothreitol (“DTT”). 7 μL of Bromodomain protein and 7 μL of peptide are added to wells containing 1 μL of various concentrations of test compounds of formula (I) or DMSO vehicle in an Alphaplate (PerkinElmer GA, USA) and incubated for 1 hour at room temperature. 4 μL donor and acceptor bead mixture is then added with final concentrations of 7.5 μg/ml. 30 minutes after bead addition, Alpha signal is read on the Envision spectrometer (λEx 680 nm, λEm 520-620 nm). Final concentrations of bromodomain proteins and peptide are as shown below.
All data was normalized to the mean of 16 high and 16 low control wells on each plate. A four parameter curve fit of the following formula was then applied: Y=a+(b−a)/(1+(x/c)^d) Where ‘a’ is the minimum, ‘b’ is the maximum, ‘c’ is the pIC50 and ‘d’ is the Hill slope. Protein Expression and Purification
Recombinant human bromodomains containing the N-terminal bromodomain (BRD2-BD1 (71-194), BRD3-BD1 (24-144) and BRD4-BD1 (44-164)) or dual bromodomains (BRD4-BD12 (1-477), BRD4-BD12 (1-472)) were expressed in E. coli cells (in a modified pET vector) with an N-terminal six-His tag and purified using a combination of both IMAC (Ni-affinity) and size exclusion chromatography steps.
Recombinant BRD proteins were expressed using the E. coli strain BL21-CodonPlus (DE3) (Agilent Technologies CA, USA). Cells were grown in Terrific Broth (TB) media to an OD600 of 1.2 at 37° C. at which temperature was reduced to 25° C., protein was induced with 1.0 mM ispropyl-β-D-thiogalactopyranoside (“IPTG”) for 12-18 hours and harvested by centrifugation at 8000×g for 20 minutes. Cells were re-suspended in 0.1M K2PO4 pH 8.0, 250 mM NaCl, 10% Glycerol, 0.75% NP-40, 25 mM Imidazole, 5 mM beta-mercaptoethanol (“BME”) with 0.2 mg/ml Lysosyme, 2.0 mM phenylmethanesulfonyl fluoride (“PMSF”), 25 μg/ml DNAse I, incubated on ice for 30 minutes and lyzed with a cell disruptor (MicroFluidics MA, USA). The lysate was clarified by centrifugation at 20,000×g for 2 hours. The protein was captured with Ni-NTA resin (Life Technologies, USA). Contaminating proteins were washed off with 25 mM Tris-HCl pH 8.3, 250 mM NaCl, 12% Glycerol and 50 mM Imidazole. Following 3× wash steps, protein was eluted step wise using a 50 mM HEPES pH 7.5, 500 mM NaCl and 400 mM Imidazole. The protein was further purified using Gel Filtration column 26/600 Superdex 200 (GE Biosciences NJ, USA) in 50 mM HEPES pH 7.5, 250 mM NaCl. The protein was aliquoted and flash-frozen in liquid Nitrogen.

SMILES	IC50 (MV-4-11 cells; MV-4-11, 3d growth)	IC50 (BRD4-BD12 (1-477))	IC50 (MV-4-11 cells)
Cc1noc(C)c1-c1ccc2c(-c3ccc(C(=O)O)cc3)cn([C@@H](C)c3ccccn3)c2c1 [P-1030, 4-[6-(3,5-dimethylisoxazol-4-yl)-1-[(1S)-1-(2-pyridyl)ethyl]indol-3-yl]benzoic acid]	< 1 µM	< 1 µM	–
Cc1noc(C)c1-c1cnc2c(I)cn(Cc3ccccc3F)c2c1 [P-0924, 4-[1-[(2-fluorophenyl)methyl]-3-iodo-pyrrolo[3,2-b]pyridin-6-yl]-3,5-dimethyl-isoxazole]	< 1 µM	< 1 µM	–
COC(=O)c1ccc(-c2cn(Cc3ncccc3F)c3cc(-c4c(C)noc4C)cnc23)cc1 [P-0948, methyl 4-[6-(3,5-dimethylisoxazol-4-yl)-1-[(3-fluoro-2-pyridyl)methyl]pyrrolo[3,2-b]pyridin-3-yl]benzoate]	< 1 µM	< 1 µM	–
COc1cccc(Cn2cc(I)c3ncc(-c4c(C)noc4C)cc32)n1 [P-0929, 4-[3-iodo-1-[(6-methoxy-2-pyridyl)methyl]pyrrolo[3,2-b]pyridin-6-yl]-3,5-dimethyl-isoxazole]	< 1 µM	< 1 µM	–
Cc1noc(C)c1-c1cnc2c(C#N)cn(C(c3ccccc3)c3ccccn3)c2c1 (centres unmarked) [P-0940, 6-(3,5-dimethylisoxazol-4-yl)-1-[phenyl(2-pyridyl)methyl]pyrrolo[3,2-b]pyridine-3-carbonitrile]	< 1 µM	< 1 µM	–
Cc1noc(C)c1-c1cnc2c(-c3ccc(COC(C)(C)C)cc3)cn(CC3CCC(F)(F)CC3)c2c1 [P-0910, 4-[3-[4-(tert-butoxymethyl)phenyl]-1-[(4,4-difluorocyclohexyl)methyl]pyrrolo [3,2-b]pyridin-6-yl]-3,5-dimethyl-isoxazole]	< 1 µM	< 1 µM	–
CCOP(=O)(OCC)c1ccc(-c2cn(C(C)c3ccccc3)c3cc(-c4c(C)noc4C)cnc23)cc1 (centres unmarked) [P-0927, 4-[3-(4-diethoxyphosphorylphenyl)-1-(1-phenylethyl)pyrrolo[3,2-b]pyridin-6-yl]-3,5-dimethyl-isoxazole]	–	< 1 µM	< 1 µM
COC(=O)c1ccc(-c2cn(Cc3ccccc3OC)c3cc(-c4c(C)noc4C)cnc23)cc1 [P-0933, methyl 4-[6-(3,5-dimethylisoxazol-4-yl)-1-[(2-methoxyphenyl)methyl]pyrrolo[3,2-b]pyridin-3-yl]benzoate]	1 to 10 µM	< 1 µM	–
COC(=O)c1ccc(-c2cn(C(c3ccccn3)C3CCCC3)c3cc(-c4c(C)noc4C)cnc23)cc1 (centres unmarked) [P-0993, methyl 4-[1-[cyclopentyl(2-pyridyl)methyl]-6-(3,5-dimethylisoxazol-4-yl)pyrrolo[3,2-b]pyridin-3-yl]benzoate]	< 1 µM	< 1 µM	–
Cc1noc(C)c1-c1cnc2c(-c3ccc(C#N)nc3)cn(CC3(C)CCOCC3)c2c1 [P-0944, 5-[6-(3,5-dimethylisoxazol-4-yl)-1-[(4-methyltetrahydropyran-4-yl)methyl]pyrrolo[3,2-b]pyridin-3-yl]pyridine-2-carbonitrile]	< 1 µM	< 1 µM	–
CNC(=O)c1ccc(-c2cn([C@@H](C)c3ccccn3)c3cc(-c4c(C)noc4C)cnc23)cn1 [P-0978, 5-[6-(3,5-dimethylisoxazol-4-yl)-1-[(1S)-1-(2-pyridyl)ethyl]pyrrolo[3,2-b]pyridin-3-yl]-N-methyl-pyridine-2-carboxamide]	< 1 µM	< 1 µM	–
Cc1noc(C)c1-c1cnc2c(-c3ccc(CC(=O)O)cc3)cn(C(c3ccccn3)C3CCCC3)c2c1 (centres unmarked) [P-0996, 2-[4-[1-[cyclopentyl(2-pyridyl)methyl]-6-(3,5-dimethylisoxazol-4-yl)pyrrolo[3,2-b]pyridin-3-yl]phenyl]acetic acid]	< 1 µM	< 1 µM	–
COC(=O)c1cc(-c2cn([C@@H](C)c3ccccn3)c3cc(-c4c(C)noc4C)cnc23)ccc1C [P-0998, methyl 5-[6-(3,5-dimethylisoxazol-4-yl)-1-[(1S)-1-(2-pyridyl)ethyl]pyrrolo[3,2-b]pyridin-3-yl]-2-methyl-benzoate]	< 1 µM	< 1 µM	–
Cc1noc(C)c1-c1cnc2c(-c3ccc(CC(=O)O)cc3)cn(C(c3ccccc3)c3ccccn3)c2c1 (centres unmarked) [P-0903, 2-[4-[6-(3,5-dimethylisoxazol-4-yl)-1-[phenyl(2-pyridyl)methyl]pyrrolo[3,2-b]pyridin-3-yl]phenyl]acetic acid]	< 1 µM	< 1 µM	–
COC(=O)c1ccc(-c2cn(Cc3ccccc3C#N)c3cc(-c4c(C)noc4C)cnc23)cc1 [P-0922, methyl 4-[1-[(2-cyanophenyl)methyl]-6-(3,5-dimethylisoxazol-4-yl)pyrrolo[3,2-b]pyridin-3-yl]benzoate]	< 1 µM	< 1 µM	–
Cc1noc(C)c1-c1ccc2c(-c3cnc(C4CC4)nc3)cn(C(c3ccccc3)c3ccccn3)c2c1 (centres unmarked) [P-1042, 4-[3-(2-cyclopropylpyrimidin-5-yl)-1-[phenyl(2-pyridyl)methyl]indol-6-yl]-3,5-dimethyl-isoxazole]	< 1 µM	< 1 µM	–
CNC(=O)c1ccc(-c2cn([C@@H](C)c3ccccn3)c3cc(-c4c(C)noc4C)cnc23)cc1 [P-0977, 4-[6-(3,5-dimethylisoxazol-4-yl)-1-[(1S)-1-(2-pyridyl)ethyl]pyrrolo[3,2-b]pyridin-3-yl]-N-methyl-benzamide]	< 1 µM	< 1 µM	–
Cc1ccc(-c2cn(C(c3ccccc3)c3ccccn3)c3cc(-c4c(C)noc4C)ccc23)cn1 (centres unmarked) [P-1041, 3,5-dimethyl-4-[3-(6-methyl-3-pyridyl)-1-[phenyl(2-pyridyl)methyl]indol-6-yl]isoxazole]	< 1 µM	< 1 µM	–
CC[C@@H](c1ccccn1)n1cc(-c2ccc(F)c(C(=O)O)c2)c2ncc(-c3c(C)noc3C)cc21 [P-1023, 5-[6-(3,5-dimethylisoxazol-4-yl)-1-[(1S)-1-(2-pyridyl)propyl]pyrrolo[3,2-b]pyridin-3-yl]-2-fluoro-benzoic acid]	< 1 µM	< 1 µM	–
COC(=O)c1ccc(-c2cn(C(c3ccccn3)C3CCOCC3)c3cc(-c4c(C)noc4C)cnc23)cc1 (centres unmarked) [P-1035, methyl 4-[6-(3,5-dimethylisoxazol-4-yl)-1-[2-pyridyl(tetrahydropyran-4-yl)methyl]pyrrolo[3,2-b]pyridin-3-yl]benzoate]	< 1 µM	< 1 µM	–
COc1ccc(-c2cn([C@@H](C)c3ccccn3)c3cc(-c4c(C)noc4C)cnc23)cn1 [P-0975, 4-[3-(6-methoxy-3-pyridyl)-1-[(1S)-1-(2-pyridyl)ethyl]pyrrolo[3,2-b]pyridin-6-yl]-3,5-dimethyl-isoxazole]	< 1 µM	< 1 µM	–
Cc1noc(C)c1-c1cnc2c(-c3cnn(C)c3)cn(CC3(C)CCOCC3)c2c1 [P-0945, 3,5-dimethyl-4-[3-(1-methylpyrazol-4-yl)-1-[(4-methyltetrahydropyran-4-yl)methyl]pyrrolo[3,2-b]pyridin-6-yl]isoxazole]	< 1 µM	< 1 µM	–
